# According to US10688031B2, “Low-toxicity sophorolipid-containing composition and use therefor” (Saraya Co., Ltd., priority 2013, dated 2020):
# Key:
# HeLa cells = assay: Cytotoxicity test using HeLa cells (MTT assay); type: cell-based, human; details: 48 hours of treatment
# Protocol: HeLa cells (Kurabo Industries, Ltd.) were seeded in a 96-well plate to a concentration of 2×10^4 cells/well and cultured in Dulbecco's Modified Eagle Medium (produced by Nissui Pharmaceutical Co., Ltd.) containing 10% NCS (Newborn Calf Serum: produced by Invitrogen), non-essential amino acids, 58 μg/ml L-glutamic acid, 60 μg/ml kanamycin at 37° C., 5% CO2 for 72 hours. The medium was replaced with media containing the samples. After 48 hours, each medium was replaced with a medium containing 1 mg/ml MTT (3-(4,5-dimethyl-2-thiazolyl)-2,5-diphenyl-2H-tetrazolium bromide). After the treatment was allowed to proceed for 2 hours, formazan dye was extracted with isopropanol. Absorbance at a wavelength of 570 nm was measured. The viability % of the cells was calculated according to the following Formula.
# The cell viability was calculated from the above MTT assay, and the cell lethal concentration (IC50) was determined from the obtained cell viability.
# [1] = Critical micelle concentration (CMC) and surface tension-reducing ability, Wilhelmy method; type: physicochemical
# Protocol: The critical micelle concentration (CMC) and surface tension-reducing ability were measured according to the Wilhelmy method. The measurements were performed at pH 7 at 20° C. using a CBVP-Z automatic surface tensiometer (produced by Kyowa Interface Science Co., Ltd.). For pH adjustment, an aqueous sodium hydroxide solution or an aqueous hydrochloric acid solution was used.
# The critical micelle concentration (CMC) and surface tension-reducing ability of these SL-containing compositions were measured, and their performance as surfactants (wettability, solubilizing power, detergency, and foamability) was evaluated. The critical micelle concentration (CMC) and surface tension-reducing ability were measured in the same manner as in Test Example 2 according to the Wilhelmy method. Specifically, the measurement was performed at pH 7 at 20° C. using a CBVP-Z automatic surface tensiometer (produced by Kyowa Interface Science Co., Ltd.).
Structure (SMILES),cell lethal concentration (IC50) (HeLa cells) [ppm],"CMC ([1]; Table 5, repeated from Test Example 2) [ppm]","Critical micelle concentration (CMC) ([1]; pH 7, 20° C., Table 4) [ppm]","Surface tension-reducing ability ([1]; pH 7, 20° C., Table 4) [mN/m]"
"CCCCCCCCCCCCOS(=O)(=O)[O-].[Na+] [SLS, Sodium Lauryl Sulfate]",<10,300,300,34.0
CCCCCCCC/C=C\CCCCCCCC(=O)O [oleic acid],300,–,–,–
